From patent publication US8685934B2, “Methods for treating extreme insulin resistance in patients resistant to previous treatment with other anti-diabetic drugs employing an SGLT2 inhibitor and compositions thereof” (Bristol-Myers Squibb Company, priority 2009, dated 2014)
Where two headings read alike, the source gives them in different places.

Assays:
[1] = system: highly insulin-resistant T2DM patients poorly controlled with insulin plus metformin and/or thiazolidinediones; conditions: for Adverse events, % of patients: placebo 65.2%; for Patients with genital tract infections: double-blind period, placebo one; for Events of pollakiuria, patients: placebo four patients; for Patients who reported episodes of hypoglycemia: placebo three patients
Text: This was a randomized, single- and double-blind, three-arm parallel group, placebo-controlled trial to determine if dapagliflozin effectively lowers hyperglycemia in highly insulin-resistant T2DM patients poorly controlled with insulin plus metformin and/or thiazolidinediones. The trial consisted of a qualification period of 10 to 21 days, a treatment phase of 12 weeks, and a follow-up phase of 4 weeks. During qualification and until day 1, patients maintained their stable dose of open-label OADs, as well as their stable dose of prescribed insulin.
The treatment phase utilized an adaptive trial design with two cohorts: Cohort 1, the insulin dose-setting group; and Cohort 2, the main experimental group. The purpose of Cohort 1 was to determine the ideal starting dose of insulin least likely to cause hypoglycemia when dapagliflozin would be added. In Cohort 1, four patients were assigned to 20 mg single-blind dapagliflozin on day 1 after having their insulin dose decreased by 50%, the greatest decrement possible in this adaptive design. These patients underwent 48-hour continuous blood glucose monitoring (CGM) during the first week of treatment. Pursuant to the protocol, if at least one patient recorded a CGM value ≦100 mg/dL, confirmed by self-monitoring of blood glucose (SMBG), the total daily insulin dose for patients in Cohort 2 would be set at 50% of their usual dose that is, at an average of 52 to 54 units of insulin daily, and lesser dose reductions of insulin would not be tested. […] Patients in Cohort 2 were randomized on day 1 in a 1:1:1 ratio to double-blind placebo, 10 mg dapagliflozin or 20 mg dapagliflozin once daily, in addition to their open-label OAD(s) and 50% of their usual daily insulin, that is an average of 52 to 54 units of insulin daily.
Patients were scheduled for visits at weeks 1, 2, 4, 6, 8, 10, and 12 of treatment, and performed SMBG 5 times daily during the 3 to 5 days prior to visits. No dose modifications of blinded study medication or OAD(s) were allowed during the treatment phase. Guidelines were in place throughout the trial for managing hypo- and hyperglycemia. […] Additional down-titration could be implemented as clinically indicated to manage the risk of hypoglycemia.
Safety outcomes were assessed by treatment-emergent adverse events, vital signs, ECGs and laboratory measurements, including 24-hour urine collections for volume and electrolytes.

[2] = system: highly insulin-resistant T2DM patients poorly controlled with insulin plus metformin and/or thiazolidinediones
Method: Criteria for management of hyperglycemia were determined by fasting plasma glucose (FPG) measurements. For any FPG level >240 mg/dL at weeks 4 and 6, >220 mg/dL at week 8, or >200 mg/dL at week 10, the patient would be scheduled for a follow-up visit in 3 to 5 days. If FPG was still above the threshold at follow-up, a visit was scheduled in order to increase the insulin dose as clinically indicated. Patients who further lacked glycemic control despite up-titration, or whose modified insulin dose exceeded baseline, were discontinued from blinded treatment and entered into follow-up.
All patients were on insulin-sensitizer therapy for at least 6 weeks prior to enrollment and insulin-based therapy for at least 12 weeks prior to enrollment. The study protocol defined insulin-sensitizer therapy as metformin (stable dose ≧1000 mg) and/or pioglitazone (stable dose ≧30 mg) or rosiglitazone (stable dose 4 mg). Insulin-based therapy was defined as subcutaneous insulin for at least 12 weeks prior to enrollment, with 2 minimum insulin daily dose equivalent to 50 units (median 85 to 93 units across all study arms) of U100 insulin per day. The insulin regimen must have been stable for at least 6 weeks. In addition to 10 mg dapagliflozin or 20 mg dapagliflozin daily or placebo, 74.6% of patients received metformin (≧1000 mg daily) plus insulin; 16.9% of patients received metformin (≧1000 mg daily) plus pioglitazone (≧30 mg daily) or rosiglitazone (4 mg daily) plus insulin and 8.5% of patients received pioglitazone (≧30 mg daily) or rosiglitazone (4 mg daily) plus insulin.
Patients in Cohort 1 were evaluated for safety only. Patients in Cohort 2 were evaluated for safety and efficacy. The primary efficacy measure was change from baseline in HbAlc, at week 12, last observation carried forward (LOCF). If no week 12 assessment was available, the last observation prior to week 12 was used. Secondary efficacy measures included changes from baseline at week 12 (LOCF) in FPG and insulin dose, the proportion of patients achieving a decrease in HbAlc>0.5% from baseline at week 12 (LOCF), and the proportion of patients achieving HbAlc<7% at week 12 (LOCF). Tertiary endpoints included changes from baseline in total body weight and in postprandial glucose (PPG) measured by an oral glucose tolerance test (OGTT).
Patients in Cohort 2 were evaluated for safety and efficacy. The primary efficacy measure was change from baseline in HbAlc at week 12, last observation carried forward (LOCF). The analysis was done excluding data after up-titration of insulin. If no week 12 assessment was available, the last observation prior to week 12 was used.
For Cohort 2, the sample size target of 22 patients per treatment group was chosen to allow for the calculation of 95% confidence intervals for the primary endpoint with a half-width of 0.42% for each treatment group. This assumed a 1% standard deviation for the primary endpoint in each of the dapagliflozin and placebo arms. With the same assumption, the half-width of a 95% confidence interval for the difference between any two treatment mean changes was estimated to be 0.59%. The primary efficacy data set consisted of all randomized patients who took at least one dose of double-blind study medication during the treatment phase. The analyses of the efficacy variables (except change from baseline in insulin dose) were done excluding data after up-titration of insulin. The analyses for changes from baseline in HbAlc, FPG, insulin dose, and total body weight at week 12 (LOCF) were performed using an analysis of covariance (ANCOVA) model with treatment group as an effect and baseline value as a covariate. Point estimates and 95% confidence intervals were calculated for mean changes within each treatment group and for differences in mean changes between the dapagliflozin and placebo groups.

[3] = Dapagliflozin 10 mg + insulin + OAD, excludes data after insulin up-titration
[4] = Dapagliflozin 10 mg + insulin + OAD, week 12 LOCF
[5] = Dapagliflozin 10 mg + insulin + OAD, week 12 LOCF, ANCOVA-adjusted, excludes data after insulin up-titration
[6] = Dapagliflozin 10 mg + insulin + OAD, week 12 LOCF, ANCOVA-adjusted, excludes data after insulin up-titration, listed as dapagliflozin
[7] = Dapagliflozin 10 mg + insulin + OAD, week 12 LOCF, excludes data after insulin up-titration
[8] = Dapagliflozin 10 mg + insulin + OAD, week 12 LOCF, of 23 patients, excludes data after insulin up-titration
[9] = Dapagliflozin 20 mg + insulin + OAD, excludes data after insulin up-titration

SMILES: CCOc1ccc(Cc2cc([C@@H]3O[C@H](CO)[C@@H](O)[C@H](O)[C@H]3O)ccc2Cl)cc1 [Dapagliflozin, (2S,3R,4R,5S,6R)-2-(4-chloro-3-(4-ethoxybenzyl)phenyl)-6-(hydroxymethyl)tetrahydro-2H-pyran-3,4,5-triol]
- Adverse events, % of patients ([1]; 10 mg dapagliflozin arm): 75.0%
- Patients with genital tract infections ([1]; 10 mg dapagliflozin group): none
- Events of pre-renal azotemia ([1]; 10 mg dapagliflozin, patient on enalapril, carvedilol and furosemide, discontinued after eleven days, resolved with oral rehydration): One
- Events of pollakiuria, patients ([1]; 10 mg dapagliflozin): two
- Adverse events, % of patients ([1]; 20 mg dapagliflozin arm): 66.7%
- Patients who reported episodes of hypoglycemia ([1]; 20 mg dapagliflozin group (n = 24)): six
- Patients with genital tract infections ([1]; 20 mg dapagliflozin group): five
- Events of pollakiuria, patients ([1]; 20 mg dapagliflozin): three
- Patients who reported polyuria ([1]; dapagliflozin 10 mg arm): One
- Patients with adverse events that led to discontinuation ([1]; dapagliflozin 10 mg arm): One
- Patients who reported episodes of hypoglycemia ([1]; dapagliflozin 10 mg group (n = 24)): seven
- Cases of microalbuminuria (resulted in discontinuation from the study) ([1]; dapagliflozin 20 mg arm): One
- Patients who reported polyuria ([1]; dapagliflozin 20 mg arm): One
- Patients with adverse events that led to discontinuation ([1]; dapagliflozin 20 mg arm): One
- Patients who experienced a serious adverse event ([1]; dapagliflozin 20 mg group): one
- Patients who reported a urinary tract infection ([1]; dapagliflozin 20 mg group): One
- Total hypoglycemic events versus placebo, in words ([1]; major/minor episodes were balanced across all groups): more frequently reported with dapagliflozin treatment than with placebo
- Deaths, in words ([1]; whole study): no deaths
- Reductions in HbAlc and improvements over placebo in FPG and PPG, dose relation, in words ([2]; 10 and 20 mg dapagliflozin): dose-dependent
- Change from baseline in total daily insulin dose, in words ([2]; Cohort 2, week 12): no appreciable change
- Fasting plasma glucose, mean (SD), End of Double-blind (Week 12 LOCF) [2, 3]: 160.5 (38.7) mg/dL
- Weight, mean (SD), End of Double-blind (Week 12 LOCF) [2, 3]: 98.2 (9.4) kg
- Total daily insulin dose, mean (SD), End of Double-blind (Week 12 LOCF) ([2]; Dapagliflozin 10 mg + insulin + OAD, includes data after insulin up-titration, U = units of U100 insulin): 51.3 (20.1) U
- Postprandial glucose, mean (SD), End of Double-blind (Week 12 LOCF) ([2]; Dapagliflozin 10 mg + insulin + OAD, measured at 120 minutes by OGTT, excludes data after insulin up-titration): 286.0 (55.1) mg/dL
- Fasting plasma glucose change from baseline, difference vs placebo + insulin + OAD, mean (95% CI) [2, 4]: −15.4 (−38.4 to 7.5) mg/dL
- HbA1c change from baseline, difference vs placebo + insulin + OAD, mean (95% CI) [2, 4]: −0.70 (−1.08 to −0.32) %
- Patients with ↓ HbA1c ≧ 0.5%, difference in proportions vs placebo + insulin + OAD (95% CI) [2, 4]: 49.4 (20.1 to 72.4) %
- Total daily insulin dose change from baseline, difference vs placebo + insulin + OAD, mean (95% CI) [2, 4]: −3.1 (−10.7 to 4.6) U
- Weight change from baseline, difference vs placebo + insulin + OAD, mean (95% CI) [2, 4]: −2.6 (−4.0 to −1.2) kg
- Postprandial glucose, change from baseline, mean (95% CI) ([2]; Dapagliflozin 10 mg + insulin + OAD, week 12 LOCF, 120 minutes by OGTT, excludes data after insulin up-titration): −34.3 (−67.5 to −1.1) mg/dL
- Fasting plasma glucose, change from baseline, mean (95% CI) [2, 5]: 2.4 (−13.6 to 18.3) mg/dL
- HbA1c, change from baseline, mean (95% CI) [2, 5]: −0.61 (−0.87 to −0.36) %
- Weight, change from baseline, mean (95% CI) [2, 5]: −4.5 (−5.5 to −3.5) kg
- Fasting plasma glucose, change from baseline, mean (95% CI) [2, 6]: 2.4 mg/dL
- Weight, change from baseline, mean (95% CI) [2, 6]: -4.5 kg
- Total daily insulin dose, change from baseline, mean (95% CI) ([2]; Dapagliflozin 10 mg + insulin + OAD, week 12 LOCF, ANCOVA-adjusted, includes data after insulin up-titration): −1.4 (−6.6 to 3.9) U
- Patients with HbA1c < 7.0%, (%), response [2, 7]: 13.0%
- Patients with ↓ HbA1c ≧ 0.5%, (%), response [2, 7]: 65.2%
- HbA1c change from baseline, difference vs placebo + insulin + OAD, mean (95% CI) ([2]; Dapagliflozin 10 mg + insulin + OAD, week 12 LOCF, listed as dapagliflozin): −0.70%
- Patients with HbA1c < 7.0%, No., response [2, 8]: 3
- Patients with ↓ HbA1c ≧ 0.5%, No., response [2, 8]: 15
- HbA1c, mean (SD), End of Double-blind (Week 12 LOCF) ([2]; Dapagliflozin 10 mg once daily + insulin (50% of usual dose) + OAD, Cohort 2, excludes data after insulin up-titration): 7.8 (0.7) %
- Fasting plasma glucose, mean (SD), End of Double-blind (Week 12 LOCF) [2, 9]: 149.4 (32.0) mg/dL
- Weight, mean (SD), End of Double-blind (Week 12 LOCF) [2, 9]: 97.8 (14.1) kg
